The text below walks through data of patent US8110555B2, “7-hydroxy chromones as potent antioxidants” (Unigen, Inc., priority 2002, dated 2012).

The subject of one assay is tyrosinase. The settings on record: cited from earlier work; for type of tyrosinase inhibition (Lineweaver Burk diagram): Yagi et al. (1987).
In assay [1] the test system is spontaneous lipid peroxidation reaction. The assay can be described thus: Lipid Peroxidation Inhibition Capacity (LPIC) assay, MDA by thiobarbituric acid reaction. The format is biochemical. The settings on record: for inhibition of lipid peroxidation: concentration 5 mg/mL in phosphate-saline buffer. From the text: The Lipid Peroxidation Inhibition Capacity (LPIC) assay is a method for measuring the ability of a sample to inhibit the initiation and propagation of a spontaneous lipid peroxidation reaction. Lipid peroxidation represents the major mechanism of lipid destruction occurring in an organism. This reaction is also an important source of reactive oxygen species. In part, lipid peroxidation is controlled in vivo by:
Lipid Peroxidation Inhibition Capacity (LPIC) is a measure of the anti-oxidative ability of a sample to inhibit the initiation and propagation of a spontaneous lipid peroxidation reaction. Malonyldialdehyde (MDA) is one of the major by-products of lipid peroxidation and is commonly used as a means of measuring the extent of lipid peroxidation. MDA concentrations were measured using the thiobarbituric acid reaction. Aloeresin A (purity 76.0%), vitamin C and cc-tocopherol were dissolved in a phosphate-saline buffer at four different concentrations (5 mg/mL, 10 mg/mL, 25 mg/mL and 50 mg/mL) and then tested directly using the experiment procedures described by Stocks et al. (1974) Clinical Sci. Mol. 47:215-222 and Yu and Lee, U.S. Pat. No. 5,939,395.

Assay [2] deals with oxygen radical damage of β-phycoerythrin (β-PE) indicator protein. The assay can be described thus: Oxygen Radical Absorption Capacity (ORAC) assay, whole ORAC. The class given is biochemical. The settings on record: FIG. 4. An excerpt:
The Oxygen Radical Absorption Capacity (ORAC) assay is a method for measuring total serum antioxidant activity. (Cao et al. (1993) Free Rad. Biol. Med. 14:303-311). It can be used to quantitatively measure the total antioxidant capacity, as well as, qualitatively measure the levels of fast versus slow acting antioxidants in a blood serum sample. The assay utilizes the free radical sensitive fluorescent indicator protein β-phycoerythrin (β-PE) to monitor the effectiveness of various serum antioxidants in protecting β-PE from becoming damaged by free radicals. Assay results are quantitated by allowing the reaction to reach completion and then integrating the area under the kinetic curve relative to a blank reaction containing no antioxidant. The area under the curve is proportional to the concentration of all the antioxidants present in the sample. (DeLang and Glazer (1989) Analyt. Biochem. 177:300-306).
The chromones, Aloesin and Aloeresin A, were tested for Oxygen Radical Absorption Capacity (ORAC) relative to green tea extract which contains more than 50% total catechins and more than 25% epigallocatechingallate (EGCG) and grape seed extract which contains more than 95% total phenols. The ORAC assay measures the time-dependent decrease in the fluorescence of β-phycoerythrin (β-PE) indicator protein, resulting from oxygen radical damage. This assay provides a quantitative measure of the total antioxidant capacity to protect the free radical sensitive β-phycoerythrin. Each reaction was calibrated using the known standard Trolox, a water soluble vitamin E analogue. The ORAC value refers to the net protection area under the quenching curve of β-phycoerythrin in the presence of an antioxidant. The results of the assay are reported on the basis of 1 ORAC unit equals 1 μM of Trolox. Aloeresin A (purity 76.0%), aloesin (95.2%), green tea extract and grape seed extract were dissolved in deionized water (5% solution W/V) and tested directly using the experimental procedures described in Cao et al. (1994) Free Radic. Biol. Med. 16:135-137 and Prior and Cao (1999) Proc. Soc. […]

The test system is the same in assay [3]. The assay can be described thus: Fast and slow Oxygen Radical Absorption Capacity (ORAC). The class given is biochemical. The settings on record: for slow antioxidant activity, comparison in words: slow ORAC (50% of β-phycoerythrin survives). From the text:
Ascorbic acid, free phenolic compounds and thiol compounds are fast acting antioxidants. The slow antioxidant activity is a measure of the net protection area under the quenching curve of β-phycoerythrin in the presence of an antioxidant, which inhibits free radical propagation to the extent that 50% of β-phycoerythrin survives. Flavonoids, carotenoids and polyphenols are slow acting antioxidants. Aloeresin A (purity 76.0%), Aloesin (95.2%), green tea extract and grape seed extract, respectively were dissolved in deionized water (5% (W/V) solution) and tested directly using the experiment procedures described by Cao et al. (1994) Free Radic. Biol. Med. 16:135-137 and Prior and Cao (1999) Proc. Soc. Exp. Biol. Med. 220:255-261.

Assay [4] has the same test system. The assay can be described thus: ORAC of a meta-berry fruit drink product with added aloeresin A. The format is biochemical. The settings on record: aloeresin A at a concentration of 5%; FIG. 7. As to the method: A fruit drink product obtained from Oasis Wellness Network was determined, using the methods described in Example 3, to have an ORAC value of 3,129/oz. Aloeresin A, containing 76.0% aloeresin A was added to 40 mL of the drink (lot #0612, exp. […] These samples were then tested for whole ORAC value relative to the product in the absence of aloeresin A. using the experiment procedures illustrated described by Cao et al. (1994) Free Radic. Biol. Med. 16:135-137 and Prior and Cao (1999) Proc. Soc. Exp. Biol. Med. 220:255-261).

In the case of `COc1cc(/C=C/C(=O)O[C@@H]2[C@@H](O)[C@H](O)[C@@H](CO)O[C@H]2c2c(O)cc(C)c3c(=O)cc(CC(C)=O)oc23)ccc1O` [2″-feruloylaloesin, 2″-O-feruloylaloesin, reference compound], in the assay with tyrosinase, the “type of tyrosinase inhibition (Lineweaver Burk diagram)” value is “non-competitive inhibitor”.

Regarding `CC(=O)Cc1cc(=O)c2c(C)cc(O)c([C@@H]3O[C@H](CO)[C@@H](O)[C@H](O)[C@H]3OC(=O)/C=C/c3ccc(O)cc3)c2o1` [aloeresin A], in assay [1], the “inhibition of lipid peroxidation” value is 30.7%. In addition, the “lipid peroxidation inhibition capacity (LPIC), comparison in words” value in assay [1] (concentrations of 10 mg/mL to 50 mg/mL, vs α-tocopherol and vitamin C, FIG. 6) is “stronger antioxidant than either α-tocopherol or vitamin C”. The “whole ORAC value higher than grape seed extract” value in assay [2] (5% (W/V) solution, difference to grape seed extract) is on record as 299. For the same compound, the “whole ORAC value higher than green tea extract” value in assay [2] (5% (W/V) solution, difference to green tea extract) is on record as 33. Also, the “fast antioxidant potency relative to the other three compositions” value in assay [3] (fast ORAC (95% of β-phycoerythrin survives), 5% (W/V) solution, FIG. 5) is given as “four times more potent as a fast antioxidant”. Moreover, the “slow antioxidant activity, comparison in words” value in assay [3] (5% (W/V) solution, FIG. 5) is “superior antioxidant relative to grape seed and green tea extracts”. In addition, the “increase of ORAC value of a multiple berry fruit drink” value in assay [4] is 31.3%.

Consider `CC(=O)Cc1cc(=O)c2c(C)cc(O)c([C@@H]3O[C@H](CO)[C@@H](O)[C@H](O)[C@H]3O)c2o1` [aloesin], for which, in assay [2] (5% (W/V) solution in deionized water, vs aloeresin A, green tea and grape seed extracts), the “whole ORAC value, comparison in words” value is “much higher whole ORAC value than aloeresin A and the standardized green tea and grape seed extracts”. In addition, the “more active than grape seed extract at 50% ORAC conditions” value in assay [3] (50% ORAC conditions, relative to grape seed extract) was “more than six times more active”. Further, the “more active than green tea extract at 50% ORAC conditions” value in assay [3] (50% ORAC conditions, relative to green tea extract) is on record as “over 70%”. Further, in assay [3] (5% (W/V) solution, FIG. 5), the “slow antioxidant activity, comparison in words” value is on record as “more potent as a slow acting antioxidant”. Further, in the assay with tyrosinase, the “type of tyrosinase inhibition (Lineweaver Burk diagram)” value is given as “competitive inhibitor”. The IC50 at tyrosinase (substrate L-DOPA, read-out: concentration for 50% inhibition of tyrosinase activity) is 200 µM.

`Cc1c(C)c2c(c(C)c1O)CC[C@@](C)(CCC[C@H](C)CCC[C@H](C)CCCC(C)C)O2` [α-tocopherol, reference compound]: the “inhibition of lipid peroxidation” value in assay [1] is given as “below 10%”.
